Values of other authors in patent US20110082545A1, “DRUG ELUTING BREAST IMPLANT COVER OR COATING” (LIPOSE CORPORATION, priority 2009, published 2011).

Test system: capsular contracture
Conditions: administered orally

COc1cc(C(=O)NS(=O)(=O)c2ccccc2C)ccc1Cc1cn(C)c2ccc(NC(=O)OC3CCCC3)cc12 [zafirlukast]
ability to moderate the capsular contracture: demonstrated the ability to moderate the capsular contracture
